Assay [1] concerns CTSS-His-WT and CTSS-His-Y132D. Description: Mass spectrometry of peptide cleavage by purified CTSS. The assay is classed as biochemical, human. The note with it: after 15 minutes of incubation with purified CTSS-His-WT and CTSS-His-Y132D. How it is done: (§1) For mass spectrometry experiments, CTSS-His WT and Y132D were activated by incubation at 10 µg/mL in Assay buffer (50 mM NaOAc, 5 mM DTT, 250 mM NaCl, pH 4.5) at 37°C for 90 minutes. 2.5 µg of activated CTSS-His WT and Y132D were then co-incubated with 5 ug of peptide in Assay buffer (final volume: 300 µl) at 37°C for 15 or 30 minutes. The reaction was stopped by addition of 50 µM E64 (Selleckchem, cat #S7379) following the co-incubation. Control reactions were prepared by incubating 5 µg of peptide in 300 µl of Assay buffer at 37°C for 15 or 30 minutes. Control and digested peptides were acidified, desalted on C18 StageTips (Rappsilber et al., 2007) and dried by vacuum centrifugation. Samples were resuspended in LC-MS solvent A (2% Acetonitrile, 0.1% TFA) and equivalent sample amounts (3 to 10 ng) injections were performed. Nano-flow separations were achieved on a Dionex Ultimate 3000 RSLC nano UPLC system (Thermo Fischer Scientific) on-line connected with a Q-Exactive Mass-Spectrometer (Thermo Fischer Scientific). Samples were first trapped on a capillary C18 pre-column (Acclaim PepMap™ 100, 75 µm x 2cm) and then separated on a C18 home-made capillary column (ReproSil-Pur C18 AQ 1.9 µm; 50 cm x 75 µm ID) at 250 nl/min over a biphasic 60 min gradient ranging from 99% of solvent A (2% Acetonitrile and 0.1% Formic acid) to 90% of solvent B (90% Acetonitrile and 0.1% Formic acid). The mass spectrometer was operated in Data Dependent acquisition mode using a scan range of 200 to 1500 m/z. MS resolution was set to 70K and MS2 resolution to 17,5K. An isolation window of 2 m/z was used when selecting ions to fragment by HCD and the Normalized Collision Energy (NCE) was set to 27. Data were inspected and dedicated traces extracted with Xcalibur Qual Browser software (Thermo Fischer Scientific). The peptides used were the following: CD74 ([…]) (SEQ ID NO: 16), HSPA1/8 ([…]) (SEQ ID NO: 17), OVA ([…]) (SEQ ID NO: 18), HA ([…]) (SEQ ID NO: 19).

Assay [2] concerns the target T1, CTSS-His-WT and CTSS-His-Y132D (Homo sapiens, UniProt P25774).
T1 construct: made in house; host or cells: HEK293
The description is as above. Type of assay: biochemical. The note with it: incubated with purified CTSS-His-WT for 30 minutes. How it is done: as §1

As to QLENLRMKLPKPPKPVSKMR [SEQ ID NO: 16], the peptides cleaved entry in assay [1] was “completely cleaved”.

Consider NVKNLYEKVKSQLKNNAKEI [SEQ ID NO: 19], for which the “cleavage by CTSS” value in assay [2] is given as “can cleave”.

EEIERMVQEAEKYKAEDEVQ [SEQ ID NO: 17]: in assay [1], the peptides cleaved was 35-40%.

In the case of IKVYLPRMKMEEKYNLTSVL [SEQ ID NO: 18], the “cleavage by CTSS” value in assay [2] is reported as “can cleave”.

For the origin of these results see patent EP3884948A1, “CATHEPSIN INHIBITORS AND USES THEREOF” (Ecole Polytechnique Fédérale de Lausanne (EPFL), priority 2020, dated 2021).
